According to patent US20090325959A1 (priority 2008, published 2009):
Like-named read-outs stand apart in the source and are kept apart here.

Experiments:
[1] = molecular target: T1, p70S6K human enzyme (Homo sapiens, UniProt P23443, T412E); test: p70S6K inhibition assay (IMAP FP); type: biochemical;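 note: kinase reaction run at room temperature, phosphorylated substrate captured on IMAP beads and read as fluorescence polarization in mP, IC50 then converted to Ki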
T1 construct: purchased Upstate Chemicon 14-486

[2] = molecular target: T2, ERK1 (Homo sapiens, UniProt P27361); test: Kinase panel screen (KinaseProfiler), ERK1; type: biochemical
T2 construct: purchased Upstate, Millipore Bioscience Division (KinaseProfiler service)
Protocol: (§1) Compounds of Formulae I and II were examined for activity against a selected panel of kinases using the KinaseProfiler™ enzyme profiling services (Upstate, Millipore Bioscience Division). Percent kinase activity at 10 μM and 1 μM test compound and 10 μM ATP was determined against 40 wild-type recombinant human kinases according to Upstate's standard protocol: ASK1, BTK, CSK, c-RAF, GCK, GSK3β, IKKα, IKKβ, IRAK1, IRAK4, JNK1α1, JNK2α2, JNK3, ERK1, ERK2, MAPKAP-K2, MAPKAP-K3, MEK1, MKK4, MKK6, MKK7β, Mnk2, MSK1, PAK3, PDK1, PRAK, ROCK1, Rsk2, SAPK2a, SAPK2b, SAPK3, SAPK4, SRPK1, SRPK2, Syk, TAK1, TBK1, PI3-Kβ, PI3-Kγ, PI3-Kδ.

[3] = molecular target: T3, Mnk2 (Homo sapiens, UniProt Q9HBH9); test: Kinase panel screen (KinaseProfiler), Mnk2; type: biochemical; settings: 10 μM ATP
T3 construct: purchased Upstate, Millipore Bioscience Division (KinaseProfiler service)
Protocol: as §1

[4] = molecular target: T4, ERK2 (Homo sapiens, UniProt P28482); test: Kinase panel screen (KinaseProfiler), ERK2; type: biochemical
T4 construct: purchased Upstate, Millipore Bioscience Division (KinaseProfiler service)
Protocol: as §1

[5] = molecular target: T5, Akt3 human enzyme (Homo sapiens, UniProt Q9Y243); test: Akt3 inhibition assay (IMAP FP); type: biochemical;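 note: kinase reaction run 60 min at room temperature after 30 µM ATP start, phosphorylated substrate captured on IMAP beads and read as fluorescence polarization (mP)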
T5 construct: purchased Upstate Chemicon 14-502

[6] = test system: human monocytes; test: Human monocyte cytokine secretion assay (LPS-stimulated); type: cell-based; settings: for IC50: Monocyte, LPS-stimulated human monocytes
Protocol: Peripheral blood from healthy human volunteers was collected and the monocytes isolated via Ficoll-paque density centrifugation. […] The cells were allowed to pre-incubate with test compound at the indicated concentration for 30 minutes (37° C., 5% CO2, humidified air); after which the supernatant was removed and media containing compound and 1 ng/mL LPS was added. Cells were allowed to incubate with compounds and LPS for 4 hours at 37° C. after which the supernatant was removed and stored at −80° C. Cytokine concentrations in the supernatant were determined using commercially available Bio-Rad Bio-plex™ kits according the manufacturer's instructions.

[7] = molecular target: T6, GCK (Homo sapiens, UniProt Q12851); test: Kinase panel screen (KinaseProfiler), GCK; type: biochemical
T6 construct: purchased Upstate, Millipore Bioscience Division (KinaseProfiler service)
T6 sequence (Q12851 1-820): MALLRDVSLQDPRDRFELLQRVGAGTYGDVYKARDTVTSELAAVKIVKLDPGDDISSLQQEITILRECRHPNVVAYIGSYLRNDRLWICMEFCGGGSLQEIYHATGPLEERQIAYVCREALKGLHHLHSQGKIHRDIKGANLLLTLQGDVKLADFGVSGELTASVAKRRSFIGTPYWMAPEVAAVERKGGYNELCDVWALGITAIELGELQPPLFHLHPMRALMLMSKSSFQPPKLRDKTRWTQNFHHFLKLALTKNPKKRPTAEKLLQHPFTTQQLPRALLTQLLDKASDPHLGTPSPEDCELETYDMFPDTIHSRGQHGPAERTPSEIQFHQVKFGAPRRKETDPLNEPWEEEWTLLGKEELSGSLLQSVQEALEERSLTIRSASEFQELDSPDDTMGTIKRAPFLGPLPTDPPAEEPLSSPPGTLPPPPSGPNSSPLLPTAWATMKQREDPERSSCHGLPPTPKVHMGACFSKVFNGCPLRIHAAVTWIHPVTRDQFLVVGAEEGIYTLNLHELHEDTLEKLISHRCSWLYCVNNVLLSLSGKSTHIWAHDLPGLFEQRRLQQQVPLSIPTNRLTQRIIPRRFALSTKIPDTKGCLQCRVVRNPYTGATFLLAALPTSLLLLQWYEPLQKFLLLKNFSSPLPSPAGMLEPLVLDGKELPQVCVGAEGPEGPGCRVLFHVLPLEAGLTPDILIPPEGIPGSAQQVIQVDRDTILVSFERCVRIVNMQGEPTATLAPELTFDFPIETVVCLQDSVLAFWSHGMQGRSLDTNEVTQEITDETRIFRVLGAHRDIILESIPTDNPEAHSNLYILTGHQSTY
Protocol: as §1

[8] = test system: ova-sensitized, ova-challenged mice; test: Prevention of airway hyperreactivity (Penh, methacholine) in mouse ovalbumin sensitization model; type: in vivo
[9] = Compound plasma concentrations in unsensitized mice at 15 min post administration; type: in vivo; settings: mouse, 15 μmol/kg; mean compound plasma concentration in mice at 15 minutes post oral administration; read-out: Mouse Oral PK
[10] = test system: LPS-challenged mice; test: LPS-induced neutrophilia and cytokine production assay; type: in vivo, mouse; settings: intratracheal administration; FIG. 11B
Protocol: Male BALB/c mice, approximately 19 to 21 grams, were ordered from Charles River Laboratories (Raleigh, N.C.). All animals were challenged with aerosolized LPS (10 μg/ml) for 25 minutes on study day 0. LPS aerosol was generated using an Aerogen Aeroneb nebulizer and controller providing a flow of 400 μl/min and a particle size of 2-4 μm MMAD. Rolipram was administered i.p at 20 mg/kg. […] Four hours following LPS challenge, BALF was collected using a total of 3 ml of 0.9% sodium chloride containing 10% fetal calf serum. Total cell counts were determined using the Coulter Counter. For differential evaluations, BALF was centrifuged and cytospin slides prepared and stained with Hema3 stain. Manual leukocyte counts were then completed on 200 cells. The final concentration of individual leukocyte cell types per ml of BALF was determined by multiplication of the relative percentage of individual leukocytes with the total amount of cells/ml of BALF fluid. The concentration of IL-1β in the BALF samples was determined using commercially available Bio-plex kits (Bio-Rad). The analysis of cytokine levels was measured using the Bio-Plex 200 (Bio-Rad) system according to the manufacturer's instructions.

[11] = test system: A-10 rat thoracic aorta cells; test: PDGF-stimulated smooth muscle cell proliferation assay (BrdU incorporation); type: cell-based; settings: A-10 cells, 10 ng/mL PDGF, BrdU incorporation, percent of total challenge-stimulated proliferation;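 note: cells kept in serum-free medium, BrdU allowed to incorporate for 24 h, then incorporated label detected fluorometrically with an anti-BrdU antibody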
Protocol: Effects on cell proliferation were measured using a bromodeoxyuridine (BrdU) incorporation assay. […] Serum free media containing 01% BSA was added to the cells. 24 hours later the media was removed and replaced with warmed serum free media. […] Proliferation was then monitored using the BrdU Cell Proliferation Assay, HTS (Calbiochem cat. #t HTS01). BrdU was allowed to incorporate into cells for 24 hours prior to the addition of fixative/denaturing solution and the fluorometric detection of incorporated BrdU using a BrdU antibody as per manufacturer's directions. Data are reported as a percent of the PDGF-stimulated BrdU incorporation.

T2 sequence (P27361 whole entry): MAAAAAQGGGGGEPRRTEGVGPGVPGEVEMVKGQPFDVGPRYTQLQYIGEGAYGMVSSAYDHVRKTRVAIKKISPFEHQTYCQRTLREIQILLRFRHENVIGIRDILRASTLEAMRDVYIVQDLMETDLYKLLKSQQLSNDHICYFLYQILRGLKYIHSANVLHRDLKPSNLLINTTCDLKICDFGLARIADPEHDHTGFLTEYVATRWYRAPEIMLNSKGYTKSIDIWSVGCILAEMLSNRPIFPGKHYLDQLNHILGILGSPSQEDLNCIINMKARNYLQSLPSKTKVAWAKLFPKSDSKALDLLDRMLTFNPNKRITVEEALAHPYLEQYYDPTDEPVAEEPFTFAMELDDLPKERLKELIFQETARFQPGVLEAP
T4 sequence (P28482 whole entry): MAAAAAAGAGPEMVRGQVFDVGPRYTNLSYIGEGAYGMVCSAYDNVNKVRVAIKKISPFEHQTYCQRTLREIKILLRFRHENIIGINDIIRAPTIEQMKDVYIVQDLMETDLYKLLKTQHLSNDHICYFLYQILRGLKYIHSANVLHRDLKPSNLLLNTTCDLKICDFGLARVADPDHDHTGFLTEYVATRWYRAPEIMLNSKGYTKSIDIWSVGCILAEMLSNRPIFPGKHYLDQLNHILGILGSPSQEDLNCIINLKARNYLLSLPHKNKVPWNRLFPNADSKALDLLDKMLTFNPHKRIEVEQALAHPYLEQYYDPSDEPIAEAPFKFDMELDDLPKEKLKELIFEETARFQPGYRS
T1 sequence (P23443 1-421 T412E limits assumed): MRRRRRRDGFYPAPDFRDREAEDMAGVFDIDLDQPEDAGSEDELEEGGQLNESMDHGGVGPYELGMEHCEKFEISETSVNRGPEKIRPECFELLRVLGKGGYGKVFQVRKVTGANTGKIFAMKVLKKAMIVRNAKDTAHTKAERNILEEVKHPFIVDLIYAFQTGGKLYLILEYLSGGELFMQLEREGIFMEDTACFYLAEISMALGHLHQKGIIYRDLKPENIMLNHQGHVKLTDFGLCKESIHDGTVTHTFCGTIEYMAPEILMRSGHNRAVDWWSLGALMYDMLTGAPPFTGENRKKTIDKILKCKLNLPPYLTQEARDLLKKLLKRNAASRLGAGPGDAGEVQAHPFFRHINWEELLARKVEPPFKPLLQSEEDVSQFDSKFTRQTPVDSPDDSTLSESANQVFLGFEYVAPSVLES
T5 sequence (Q9Y243 whole entry): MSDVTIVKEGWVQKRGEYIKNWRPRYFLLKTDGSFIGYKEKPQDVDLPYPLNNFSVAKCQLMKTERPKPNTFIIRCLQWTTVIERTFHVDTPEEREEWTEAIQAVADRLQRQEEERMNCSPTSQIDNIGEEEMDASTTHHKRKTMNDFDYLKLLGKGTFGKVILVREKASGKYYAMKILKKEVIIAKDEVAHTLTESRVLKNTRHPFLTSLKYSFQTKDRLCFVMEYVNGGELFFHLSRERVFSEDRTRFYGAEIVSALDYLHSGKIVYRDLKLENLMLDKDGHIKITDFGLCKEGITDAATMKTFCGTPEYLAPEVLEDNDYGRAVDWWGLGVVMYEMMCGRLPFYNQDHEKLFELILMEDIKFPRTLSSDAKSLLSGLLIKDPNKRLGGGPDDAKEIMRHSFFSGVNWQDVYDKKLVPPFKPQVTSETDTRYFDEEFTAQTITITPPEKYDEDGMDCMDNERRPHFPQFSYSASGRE
T3 sequence (Q9HBH9 whole entry): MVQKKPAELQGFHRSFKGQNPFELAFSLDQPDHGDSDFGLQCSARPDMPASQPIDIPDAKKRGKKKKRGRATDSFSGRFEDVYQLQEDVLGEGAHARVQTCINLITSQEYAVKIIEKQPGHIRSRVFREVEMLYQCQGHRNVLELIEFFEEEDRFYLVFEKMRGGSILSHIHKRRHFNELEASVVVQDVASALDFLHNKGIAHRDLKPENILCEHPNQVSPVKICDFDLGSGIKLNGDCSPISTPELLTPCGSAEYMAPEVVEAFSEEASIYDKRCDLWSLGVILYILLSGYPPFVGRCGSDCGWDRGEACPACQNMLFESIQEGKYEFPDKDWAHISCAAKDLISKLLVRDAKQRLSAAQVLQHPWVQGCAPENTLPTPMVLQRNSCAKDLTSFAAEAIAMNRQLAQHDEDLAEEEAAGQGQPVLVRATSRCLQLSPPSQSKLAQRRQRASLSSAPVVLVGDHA

NC(=O)Cn1ccc2cc(CN3CC[C@@H](Nc4cccc5cnccc45)C3)ccc21 [Compound 2.059, (R)-2-(5-((3-(isoquinolin-5-ylamino)pyrrolidin-1-yl)methyl)-1H-indol-1-yl)acetamide]
Ki ([1]; 30 μM ATP, Ki=IC50/(1+([ATP Challenge]/EC50 ATP)), read-out: p70S6K Ki, Avg): 208 nM
Ki ([1]; average Ki, read-out: p70S6K Ki): 208 nM
activity at 1 µM ([2]; 1 μM test compound, 10 μM ATP, read-out: ERK1 Percent inhibition, 1 μM): 37%
inhibition at 1 µM ([2]; 1 μM, read-out: ERK1 inhibited): ~50%
activity at 10 µM ([2]; 10 μM test compound, 10 μM ATP, read-out: ERK1 Percent inhibition, 10 μM): 4%
activity at 1 µM ([3]; 1 μM test compound, read-out: Mnk2 Percent inhibition, 1 μM): 49%
activity at 10 µM ([3]; 10 μM test compound, read-out: Mnk2 Percent inhibition, 10 μM): 12%
ERK2 Percent inhibition, 1 μM [4]: 56%
ERK2 Percent inhibition, 10 μM [4]: 12%
inhibition at 1 µM ([4]; 1 μM, read-out: ERK2 inhibited): ~50%
Ki ([5]; 30 μM ATP, Ki=IC50/(1+([ATP Challenge]/EC50 ATP)), read-out: Akt3 Ki, Avg): 120 nM
Ki ([5]; average Ki, read-out: Akt3 Ki): 120 nM
IC50 ([6]; read-out: IC50 for inhibition of IL-1β secretion): 169 ± 13 nM
IC50 ([6]; read-out: IC50 for inhibition of IL-9 secretion): 269 ± 28.1 nM
IC50 ([6]; read-out: IC50 for inhibition of TNF-α secretion): 207 ± 17 nM
IL-6, % ([6]; average percent of stimulated IL-6 secretion from human monocytes at 10 μM of test compound): 0.0%
GCK Percent inhibition, 1 μM [7]: 75%
activity at 10 µM ([7]; 10 μM test compound, 10 μM ATP, read-out: GCK Percent inhibition, 10 μM): 34%
log10AUC (Penh) ([8]; 0.5 μmol/kg/intratracheal, days 27 to 31): 1.9979
airway hyperreactivity ([8]; intratracheal once a day during days 27 to 31): prevention of airway hyperreactivity
concentration at 15 min [9]: 90 nM
IL-1β levels in BALF from LPS-challenged mice [10]: reduction
Percent of PDGF Induced Proliferation at 1 μM Avg ([11]; 1 μM test compound): 75.0%
Percent of PDGF Induced Proliferation at 10 μM Avg ([11]; 10 μM test compound): 25.5%
